Measured values published in patent US20050049245A1, “Heteroaryl-ethanolamine derivatives as antiviral agents” (priority 2002, published 2005).
Read-outs that look alike come from different tables or passages of the source.

How the values were obtained:
[1] = target: T1, HCMV polymerase (Human cytomegalovirus, UniProt P08546); experiment: HCMV polymerase scintillation proximity assay (SPA); type: biochemical
T1 construct: made in house; host or cells: recombinant baculovirus-infected SF-9 cells
T1 sequence (P08546 whole entry): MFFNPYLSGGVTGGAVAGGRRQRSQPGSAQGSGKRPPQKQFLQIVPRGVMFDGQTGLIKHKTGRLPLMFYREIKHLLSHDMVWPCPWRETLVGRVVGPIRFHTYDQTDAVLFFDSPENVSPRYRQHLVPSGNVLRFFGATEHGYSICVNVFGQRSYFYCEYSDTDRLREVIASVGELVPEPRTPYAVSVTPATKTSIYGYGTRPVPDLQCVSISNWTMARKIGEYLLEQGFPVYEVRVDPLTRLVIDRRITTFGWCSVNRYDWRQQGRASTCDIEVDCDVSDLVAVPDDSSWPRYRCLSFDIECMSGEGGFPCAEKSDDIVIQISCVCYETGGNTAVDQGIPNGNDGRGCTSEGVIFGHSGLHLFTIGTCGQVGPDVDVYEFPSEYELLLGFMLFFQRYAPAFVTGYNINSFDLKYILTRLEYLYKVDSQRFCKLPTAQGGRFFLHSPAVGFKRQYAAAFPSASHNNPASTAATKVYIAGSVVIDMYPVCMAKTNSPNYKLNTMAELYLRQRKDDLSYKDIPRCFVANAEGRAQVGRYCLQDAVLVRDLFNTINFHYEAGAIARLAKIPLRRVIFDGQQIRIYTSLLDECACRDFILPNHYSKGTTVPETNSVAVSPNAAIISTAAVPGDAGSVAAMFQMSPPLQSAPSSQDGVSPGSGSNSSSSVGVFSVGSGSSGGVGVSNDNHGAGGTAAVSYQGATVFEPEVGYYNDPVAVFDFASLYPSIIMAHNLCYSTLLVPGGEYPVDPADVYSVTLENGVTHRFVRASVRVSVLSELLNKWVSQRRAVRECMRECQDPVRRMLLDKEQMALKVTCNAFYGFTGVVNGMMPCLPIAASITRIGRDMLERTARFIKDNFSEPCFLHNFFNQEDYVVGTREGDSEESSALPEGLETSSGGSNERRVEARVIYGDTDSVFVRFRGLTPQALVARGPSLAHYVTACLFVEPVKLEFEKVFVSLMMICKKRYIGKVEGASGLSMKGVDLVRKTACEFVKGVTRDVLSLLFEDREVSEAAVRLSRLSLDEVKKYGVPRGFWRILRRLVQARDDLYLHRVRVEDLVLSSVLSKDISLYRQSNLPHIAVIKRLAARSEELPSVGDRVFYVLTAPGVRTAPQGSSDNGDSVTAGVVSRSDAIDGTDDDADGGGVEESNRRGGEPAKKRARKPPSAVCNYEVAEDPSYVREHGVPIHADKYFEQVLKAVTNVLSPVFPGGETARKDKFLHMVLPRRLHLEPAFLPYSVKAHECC
Protocol: The HCMV polymerase assay is performed using a scintillation proximity assay (SPA) as described in several references, such as N. D. Cook, et al., Pharmaceutical Manufacturing International, pages 49-53 (1992); KY Takeuchi, Laboratory Practice, September issue (1992); U.S. Pat. No. 4,568,649 (1986); which are incorporated by reference herein. Reactions are performed in 96-well plates. The assay is conducted in 100 yl volume with 5.4 mM HEPES (pH 7.5), 11.7 mM KCl, 4.5 mM MgCl2, 0.36 mg/ml BSA, and 90 nM ^3H-dTTP. Assays are run with and without CHAPS, (3-[(3-Cholamidopropyl)-dimethylammonio]-1-propane-sulfonate) at a final concentration of 2 mM. HCMV polymerase is diluted in enzyme dilution buffer containing 50% glycerol, 250 mM NaCl, 10 mM HEPES (pH 7.5), 100 μg/ml BSA, and 0.01% sodium azide. The HCMV polymerase, which is expressed in recombinant baculovirus-infected SF-9 cells and purified according to literature procedures, is added at 10% (or 10 μl) of the final reaction volume, i.e., 100 μl. Compounds are diluted in 50% DMSO and 10 μl are added to each well. Control wells contain an equivalent concentration of DMSO. Unless noted otherwise, reactions are initiated via the addition of 6 nM biotinylated poly(dA)-oligo(dT) template/primer to reaction mixtures containing the enzyme, substrate, and compounds of interest. Plates are incubated in a 25° C. or 37° C. H2O bath and terminated via the addition of 40 μl/reaction of 0.5 M EDTA (pH 8) per well. Reactions are terminated within the time-frame during which substrate incorporation is linear and varied depending upon the enzyme and conditions used, i.e., 30 min. for HCMV polymerase. Ten (10) μl of streptavidin-SPA beads (20 mg/ml in PBS/10% glycerol) are added following termination of the reaction. Plates are incubated 10 min. at 37° C., then equilibrated to room temperature, and counted on a Packard Topcount. Linear regressions are performed and IC50's are calculated using computer software.
A modified version of the above HCMV polymerase assay is performed as described above, but with the following changes: Compounds are diluted in 100% DMSO until final dilution into assay buffer. In the previous assay, compounds are diluted in 50% DMSO. 4.5 mM Dithiothreitol (DTT) is added to the polymerase buffer.
All results are listed as Polymerase IC50 ([…]) values. In Table 1, the term “n.d.” refers to activity data not determined.

[2] = target: HSV polymerase (Human herpesvirus 1, UniProt P04293); experiment: HSV polymerase assay (Table 1); type: biochemical; settings: HSV polymerase; read-out: Polymerase IC50 HSV
Chain of HSV polymerase (P04293 whole entry): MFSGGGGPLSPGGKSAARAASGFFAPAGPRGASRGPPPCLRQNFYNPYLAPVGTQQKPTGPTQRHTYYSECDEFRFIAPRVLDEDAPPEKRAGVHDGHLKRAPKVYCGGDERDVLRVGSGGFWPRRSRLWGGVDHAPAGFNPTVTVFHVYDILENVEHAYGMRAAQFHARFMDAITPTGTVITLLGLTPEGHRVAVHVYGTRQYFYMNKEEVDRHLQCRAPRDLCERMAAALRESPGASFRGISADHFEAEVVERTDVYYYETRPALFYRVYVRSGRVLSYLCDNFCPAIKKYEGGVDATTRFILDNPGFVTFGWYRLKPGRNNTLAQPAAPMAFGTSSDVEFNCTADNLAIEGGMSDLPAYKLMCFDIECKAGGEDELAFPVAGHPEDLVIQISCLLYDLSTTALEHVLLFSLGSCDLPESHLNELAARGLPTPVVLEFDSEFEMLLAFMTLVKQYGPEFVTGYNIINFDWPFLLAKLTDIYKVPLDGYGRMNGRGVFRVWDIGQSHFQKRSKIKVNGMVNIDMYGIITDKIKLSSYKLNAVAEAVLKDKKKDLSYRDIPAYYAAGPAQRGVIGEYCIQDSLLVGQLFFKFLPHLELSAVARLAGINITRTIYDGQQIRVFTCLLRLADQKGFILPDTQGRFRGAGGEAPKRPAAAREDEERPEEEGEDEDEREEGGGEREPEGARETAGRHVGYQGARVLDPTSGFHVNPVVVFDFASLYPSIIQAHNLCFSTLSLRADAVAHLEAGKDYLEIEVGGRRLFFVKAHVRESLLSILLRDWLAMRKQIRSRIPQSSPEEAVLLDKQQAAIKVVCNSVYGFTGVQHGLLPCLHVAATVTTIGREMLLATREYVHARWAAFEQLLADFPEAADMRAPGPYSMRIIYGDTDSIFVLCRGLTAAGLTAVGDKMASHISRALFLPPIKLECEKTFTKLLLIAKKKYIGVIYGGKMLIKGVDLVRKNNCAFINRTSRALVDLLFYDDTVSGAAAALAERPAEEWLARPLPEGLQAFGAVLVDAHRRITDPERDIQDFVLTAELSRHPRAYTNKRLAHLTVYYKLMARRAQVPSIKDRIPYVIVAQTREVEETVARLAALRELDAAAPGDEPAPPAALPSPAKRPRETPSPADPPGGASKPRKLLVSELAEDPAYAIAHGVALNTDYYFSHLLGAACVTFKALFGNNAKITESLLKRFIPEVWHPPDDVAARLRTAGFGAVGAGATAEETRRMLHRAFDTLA

[3] = target: VZV polymerase (Varicella-zoster virus, UniProt P09252); experiment: VZV polymerase assay (Table 1); type: biochemical; settings: VZV polymerase; read-out: Polymerase IC50 VZV
Chain of VZV polymerase (P09252 whole entry): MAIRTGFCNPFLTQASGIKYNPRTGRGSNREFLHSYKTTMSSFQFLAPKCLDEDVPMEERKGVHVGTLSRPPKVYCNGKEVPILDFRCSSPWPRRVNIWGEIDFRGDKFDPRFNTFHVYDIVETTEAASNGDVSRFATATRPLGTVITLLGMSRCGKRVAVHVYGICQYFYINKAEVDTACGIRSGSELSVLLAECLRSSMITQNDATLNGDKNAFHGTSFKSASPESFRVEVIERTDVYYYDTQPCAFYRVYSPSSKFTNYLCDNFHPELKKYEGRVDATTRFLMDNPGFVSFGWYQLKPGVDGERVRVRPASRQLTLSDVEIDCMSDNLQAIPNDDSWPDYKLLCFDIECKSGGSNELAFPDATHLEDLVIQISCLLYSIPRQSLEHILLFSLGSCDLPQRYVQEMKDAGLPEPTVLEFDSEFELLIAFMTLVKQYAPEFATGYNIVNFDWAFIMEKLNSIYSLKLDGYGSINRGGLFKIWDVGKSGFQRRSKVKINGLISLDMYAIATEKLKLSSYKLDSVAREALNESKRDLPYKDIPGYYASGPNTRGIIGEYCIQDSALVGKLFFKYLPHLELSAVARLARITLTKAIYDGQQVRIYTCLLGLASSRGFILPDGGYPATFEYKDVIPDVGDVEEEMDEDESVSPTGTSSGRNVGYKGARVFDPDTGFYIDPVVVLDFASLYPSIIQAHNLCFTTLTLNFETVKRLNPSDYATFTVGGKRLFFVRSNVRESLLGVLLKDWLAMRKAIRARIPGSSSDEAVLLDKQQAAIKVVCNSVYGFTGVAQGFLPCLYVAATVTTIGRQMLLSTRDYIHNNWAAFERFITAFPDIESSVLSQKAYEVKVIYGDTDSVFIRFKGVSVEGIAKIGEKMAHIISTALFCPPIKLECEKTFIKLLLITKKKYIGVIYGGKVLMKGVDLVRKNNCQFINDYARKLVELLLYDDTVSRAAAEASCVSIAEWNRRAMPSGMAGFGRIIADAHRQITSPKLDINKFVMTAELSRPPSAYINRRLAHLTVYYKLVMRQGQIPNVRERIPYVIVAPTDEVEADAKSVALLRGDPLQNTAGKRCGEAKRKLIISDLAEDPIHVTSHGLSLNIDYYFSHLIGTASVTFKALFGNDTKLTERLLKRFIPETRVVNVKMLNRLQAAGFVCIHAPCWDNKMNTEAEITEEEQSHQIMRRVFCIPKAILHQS

[4] = HCMV polymerase, SPA, read-out: Polymerase IC50 HCMV

Structure (SMILES) | IC50 [1, 4] [nM] | IC50 [2] [nM] | IC50 [3] [nM] | melting point | IC50 [1] [nM]
CN(Cc1cc2c(=O)c(C(=O)NCc3ccc(Cl)cc3)cn(C)c2s1)CC(O)c1cc2ccccc2o1 (racemic) [Example 5, rac-2-(((2-(1-Benzofuran-2-yl)-2-hydroxyethyl)(methyl)amino)methyl)-N-(4-chlorobenzyl)-7-methyl-4-oxo-4,7-dihydrothieno[2,3-b]pyridine-5-carboxamide] | 10 | 30 | 10 | 212 to 214 °C | 
CN(Cc1cc2c(=O)c(C(=O)NCc3ccc(Cl)cc3)cn(C)c2s1)CC(O)c1ccc[nH]1 (racemic) [Example 7, rac-N-(4-Chlorobenzyl)-2-(((2-hydroxy-2-(1H-pyrrol-2-yl)ethyl)(methyl)amino)-methyl)-7-methyl-4-oxo-4,7-dihydrothieno[2,3-b]pyridine-5-carboxamide] | 300 | 980 | 330 | 169 to 172 °C (dec.) | 
CN(Cc1cc2c(=O)c(C(=O)NCc3ccc(Cl)cc3)cn(C)c2s1)CC(O)c1ccoc1 (racemic) [Example 4, rac-N-(4-Chlorobenzyl)-2-(((2-(3-furyl)-2-hydroxyethyl)(methyl)amino)methyl)-7-methyl-4-oxo-4,7-dihydrothieno[2,3-b]pyridine-5-carboxamide] | 250 | 840 | 390 | 151 to 153 °C | 
CN(Cc1cc2c(=O)c(C(=O)NCc3ccc(Cl)cc3)cn(C)c2s1)CC(O)c1c[nH]cn1 (racemic) [Example 10, rac-N-(4-Chlorobenzyl)-2-(((2-hydroxy-2-(1H-imidazol-4-yl)ethyl)(methyl)amino)methyl)-7-methyl-4-oxo-4,7-dihydrothieno[2,3-b]pyridine-5-carboxamide] | 450 | 1970 | 440 | 164 to 169 °C | 
CN(Cc1cc2c(=O)c(C(=O)NCc3ccc(Cl)cc3)cn(C)c2s1)CC(O)c1nccs1 (racemic) [Example 16, rac-N-(4-Chlorobenzyl)-2-(((2-hydroxy-2-(1,3-thiazol-2-yl)ethyl)(methyl)amino)-methyl)-7-methyl-4-oxo-4,7-dihydrothieno[2,3-b]pyridine-5-carboxamide] |  | 450 | 190 | 129 to 133 °C | 200
CN(Cc1cc2c(=O)c(C(=O)NCc3ccc(Cl)cc3)cn(C)c2s1)CC(O)c1cccn1C (racemic) [Example 8, rac-N-(4-Chlorobenzyl)-2-(((2-hydroxy-2-(1-methyl-1H-pyrrol-2-yl)ethyl)-(methyl)amino)methyl)-7-methyl-4-oxo-4,7-dihydrothieno[2,3-b]pyridine-5-carboxamide] | 260 | 850 | 320 | 140 to 145 °C | 
Cc1ccc(C(O)CN(C)Cc2cc3c(=O)c(C(=O)NCc4ccc(Cl)cc4)cn(C)c3s2)o1 (racemic) [Example 3, rac-N-(4-Chlorobenzyl)-2-(((2-hydroxy-2-(5-methyl-2-furyl)ethyl)(methyl)amino)methyl)-7-methyl-4-oxo-4,7-dihydrothieno[2,3-b]pyridine-5-carboxamide] | 70 | 260 | 130 | 137 to 140 °C | 
CN(Cc1cc2c(=O)c(C(=O)NCc3ccc(Cl)cc3)cn(C)c2s1)CC(O)c1c[nH]c2ccccc12 (racemic) [Example 11, rac-N-(4-Chlorobenzyl)-2-(((2-hydroxy-2-(1H-indol-3-yl)ethyl)(methyl)amino)-methyl)-7-methyl-4-oxo-4,7-dihydrothieno[2,3-b]pyridine-5-carboxamide] | 90 | 200 | 90 | 120 to 123 °C | 

Second part, led by results:

IC50 [1, 4] [nM] | IC50 [2] [nM] | IC50 [3] [nM] | melting point | Structure (SMILES) | IC50 [1] [nM]
140 | 620 | 200 | 166 to 167 °C | Cc1cc(C(O)CN(C)Cc2cc3c(=O)c(C(=O)NCc4ccc(Cl)cc4)cn(C)c3s2)oc1C (racemic) [Example 30, rac-N-(4-Chlorobenzyl)-2-(((2-(4,5-dimethyl-2-furyl)-2-hydroxyethyl)(methyl)-amino)methyl)-7-methyl-4-oxo-4,7-dihydrothieno[2,3-b]pyridine-5-carboxamide] | 
220 | 460 | 200 | 123 to 127 °C | CCn1cc(C(=O)NCc2ccc(Cl)cc2)c(=O)c2cc(CN(C)C[C@@H](O)c3ccco3)sc21 [Example 20, N-(4-Chlorobenzyl)-7-ethyl-2-((((2R)-2-(2-furyl)-2-hydroxyethyl)(methyl)amino)-methyl)-4-oxo-4,7-dihydrothieno [2,3-b]pyridine-5-carboxamide] | 
100 | 530 | 120 | 128 to 132 °C (dec.) | CN(Cc1cc2c(=O)c(C(=O)NCc3ccc(Cl)cc3)cn(C)c2s1)CC(O)c1cc2ccccc2n1C (racemic) [Example 14, rac-N-(4-Chlorobenzyl)-2-(((2-hydroxy-2-(1-methyl-1H-indol-2-yl)ethyl)(methyl)-amino)methyl)-7-methyl-4-oxo-4,7-dihydrothieno[2,3-b]pyridine-5-carboxamide] | 
170 | 1920 | 440 | 213 to 219 °C (dec.) | CN(Cc1cc2c(=O)c(C(=O)NCc3ccc(Cl)cc3)cn(C)c2s1)CC(O)c1csc2ccccc12 (racemic) [Example 13, rac-2-(((2-(1-Benzothien-3-yl)-2-hydroxyethyl)(methyl)amino)methyl)-N-(4-chlorobenzyl)-7-methyl-4-oxo-4,7-dihydrothieno[2,3-b]pyridine-5-carboxamide] | 
350 | 910 | 370 | 177.5 to 178.6 °C | CN(Cc1cc2c(=O)c(C(=O)NCc3ccc(Cl)cc3)cn(C)c2s1)CC(O)c1ccn[nH]1 (racemic) [Example 18, rac-N-(4-Chlorobenzyl)-2-(((2-hydroxy-2-(1H-pyrazol-5-yl)ethyl)(methyl)amino)-methyl)-7-methyl-4-oxo-4,7-dihydrothieno[2,3-b]pyridine-5-carboxamide] | 
70 | 120 | 60 | 177 to 178 °C | CN(Cc1cc2c(=O)c(C(=O)NCc3ccc(Cl)cc3)cn(C)c2s1)CC(O)c1ccc(-c2ccccc2)o1 (racemic) [Example 31, rac-N-(4-Chlorobenzyl)-2-(((2-(5-phenyl-2-furyl)-2-hydroxyethyl)(methyl)-amino)methyl)-7-methyl-4-oxo-4,7-dihydrothieno[2,3-b]pyridine-5-carboxamide] | 
830 |  |  | 177.9 to 179.5 °C | CN(Cc1cc2c(=O)c(C(=O)NCc3ccc(Cl)cc3)cn(C)c2s1)CC(O)c1ncc[nH]1 (racemic) [Example 36, rac-N-(4-Chlorobenzyl)-2-(((2-hydroxy-2-(1H-imidazol-2-yl)ethyl)(methyl)-amino)methyl)-7-methyl-4-oxo-4,7-dihydrothieno[2,3-b]pyridine-5-carboxamide] | 
240 |  |  | 155 to 160 °C (dec.) | CN(Cc1cc2c(=O)c(C(=O)NCc3ccc(Cl)cc3)cn(C)c2s1)CC(O)c1ccc(C#N)s1 (racemic) [Example 15, rac-N-(4-Chlorobenzyl)-2-(((2-(5-cyanothien-2-yl)-2-hydroxyethyl)(methyl)-amino)methyl)-7-methyl-4-oxo-4,7-dihydrothieno[2,3-b]pyridine-5-carboxamide] | 
